Like-named read-outs stand apart in the source and are kept apart here. No end group written: not given here.
What was measured:
[1] = tested on: peptide pulsed HLA-A2 matched JY EBV-BCL target cells; format: cell-based, human
[2] = tested on: peptide-pulsed HLA-A2 matched JY EBV-BCL cells

## LLFNILGGWV [SEQ ID NO:35]
[1]
  represents a CTL epitope (dagger mark): LLFNILGGWV^†

## LLCPAGHAV [SEQ ID NO:26]
[1]; panel of 53 peptides, assay of Example 2
  represents a CTL epitope (dagger mark): LLCPAGHAV^†
[2]; subject C-3, lines four weeks in culture, varying effector/target cell ratio
  lysis of target cells by peptide specific CTL lines (FIG. 2): recognize and lyse HLA A2-matched EBV-BCL in a dose dependent fashion

## CC(C)C[C@H](NC(=O)[C@H](C)NC(=O)[C@H](CC(C)C)NC(=O)[C@@H](N)CC(C)C)C(=O)N[C@@H](CC(C)C)C(=O)N[C@@H](CO)C(=O)N[C@@H](CS)C(=O)N[C@@H](CC(C)C)C(=O)N[C@H](C(=O)N[C@H](C(=O)O)C(C)C)[C@@H](C)O [SEQ ID NO:2]
[2]; subject C-2, 2 weeks, E/T 80
  peptide specific cytotoxic activity %: 29%
[2]; subject C-2, 3 weeks, E/T 25
  peptide specific cytotoxic activity %: 37%
[2]; subject C-2, 4 weeks, E/T 7
  peptide specific cytotoxic activity %: 33%
[2]; subject C-2, 4 weeks, E/T 21
  peptide specific cytotoxic activity %: 64%
[2]; subject C-2, 4 weeks, E/T 64
  peptide specific cytotoxic activity %: 81%
[2]; subject C-2, 5 weeks, E/T 2
  peptide specific cytotoxic activity %: 24%
[2]; subject C-2, 5 weeks, E/T 6
  peptide specific cytotoxic activity %: 57%
[2]; subject C-2, 5 weeks, E/T 18
  peptide specific cytotoxic activity %: 60%
[2]; subject C-3, 2 weeks, E/T 80
  peptide specific cytotoxic activity %: 19%
[2]; subject C-3, 3 weeks, E/T 40
  peptide specific cytotoxic activity %: 18%
[2]; subject C-3, 4 weeks, E/T 4
  peptide specific cytotoxic activity %: 20%
[2]; subject C-3, 4 weeks, E/T 11
  peptide specific cytotoxic activity %: 37%
[2]; subject C-3, 4 weeks, E/T 33
  peptide specific cytotoxic activity %: 60%
[2]; subject C-3, 5 weeks, E/T 3
  peptide specific cytotoxic activity %: 35%
[2]; subject C-3, 5 weeks, E/T 10
  peptide specific cytotoxic activity %: 52%
[2]; subject C-3, 5 weeks, E/T 30
  peptide specific cytotoxic activity %: 76%

## ILDSFDPLV [SEQ ID NO:42]
[2]; subject C-2, Exp I, 2 weeks, E/T 40
  peptide specific cytotoxic activity %: 29%
[2]; subject C-2, Exp II (PBMC collected two months after Exp I), 2 weeks, E/T 40
  peptide specific cytotoxic activity %: 2%
[2]; subject C-2, Exp II, 3 weeks, E/T 25
  peptide specific cytotoxic activity %: 3%
[2]; subject C-2, Exp II, 4 weeks, E/T 10
  peptide specific cytotoxic activity %: 10%
[2]; subject C-2, Exp II, 4 weeks, E/T 29
  peptide specific cytotoxic activity %: 29%
[2]; subject C-2, Exp II, 4 weeks, E/T 88
  peptide specific cytotoxic activity %: 59%
[2]; subject C-2, Exp II, 5 weeks, E/T 6
  peptide specific cytotoxic activity %: 20%
[2]; subject C-2, Exp II, 5 weeks, E/T 19
  peptide specific cytotoxic activity %: 52%
[2]; subject C-2, Exp II, 5 weeks, E/T 56
  peptide specific cytotoxic activity %: 83%

Source: US7220420B2, “Hepatitis C virus-derived peptides capable of inducing cytotoxic T lymphocyte responses” (The Scripps Research Institute, priority 1994, dated 2007)
